Measurements as given in ChEMBL document CHEMBL1140503, “Discovery of 1,1-dioxo-1,2,6-thiadiazine-5-carboxamide derivatives as cannabinoid-like molecules with agonist and antagonist activity” (Bioorg Med Chem, 2007).
Activity calls are given as the source filed them. No cut-off for these calls is given here.

Columns and labels:
Cannabinoid receptor 1 [1] = target: T1, Cannabinoid receptor 1 (Mus musculus, UniProt P47746); assay: (§1) Agonist activity at CB1 receptor in ICR mouse vas deferens assessed as inhibition of electrically-stimulated contraction; type: functional, tissue-based
[2] = target: Cannabinoid receptor 1 (Mus musculus) (UniProt P47746); assay: as §1; type: functional, tissue-based
Cannabinoid receptor 1 [3] = target: T1, Cannabinoid receptor 1; assay: Antagonist activity at CB1 receptor in ICR mouse vas deferens assessed as reversal of WIN-55212-2-induced effect on electrically-stimulated contraction; type: functional, tissue-based; conditions: read-out: pA2 (converted)
[4] = Antagonism of WIN-55212-2 mediated antinociceptive activity in ICR mouse at 1 mg/kg ip dose; type: functional, organism-based; set-up: dose 1 mg/kg; conditions: filed as antagonist
Mus musculus [5] = assay: Antinociceptive activity in ICR mouse at 1.5 mg/kg, ip by hot plate test; type: functional, organism-based; set-up: dose 1.5 mg/kg
Mus musculus [6] = assay: Induction of hypothermic effect in ICR mouse at 1.5 mg/kg, ip; type: functional, organism-based; set-up: dose 1.5 mg/kg
Mus musculus [7] = assay: Inhibition of spontaneous motility in ICR mouse at 1.5 mg/kg, ip; type: functional, organism-based; set-up: dose 1.5 mg/kg
Mus musculus [8] = assay: Induction of catalepsy in ICR mouse at 1.5 mg/kg, ip by ring test; type: functional, organism-based; set-up: dose 1.5 mg/kg
Mus musculus [9] = assay: Prevention of spontaneous activity reduction in ICR mouse at 1 mg/kg, ip; type: functional, organism-based; set-up: dose 1 mg/kg
Mus musculus [10] = assay: Increase in locomotory activity in ICR mouse at 20 mg/kg, ip; type: functional, organism-based; set-up: dose 20 mg/kg
Mus musculus [11] = assay: Effect on cannabinoid behavioral sign in ICR mouse at 0.2 mg/kg, icv; type: functional, organism-based; set-up: dose 0.2 mg/kg

Sequence of Cannabinoid receptor 1 (Mus musculus) (P47746 whole entry): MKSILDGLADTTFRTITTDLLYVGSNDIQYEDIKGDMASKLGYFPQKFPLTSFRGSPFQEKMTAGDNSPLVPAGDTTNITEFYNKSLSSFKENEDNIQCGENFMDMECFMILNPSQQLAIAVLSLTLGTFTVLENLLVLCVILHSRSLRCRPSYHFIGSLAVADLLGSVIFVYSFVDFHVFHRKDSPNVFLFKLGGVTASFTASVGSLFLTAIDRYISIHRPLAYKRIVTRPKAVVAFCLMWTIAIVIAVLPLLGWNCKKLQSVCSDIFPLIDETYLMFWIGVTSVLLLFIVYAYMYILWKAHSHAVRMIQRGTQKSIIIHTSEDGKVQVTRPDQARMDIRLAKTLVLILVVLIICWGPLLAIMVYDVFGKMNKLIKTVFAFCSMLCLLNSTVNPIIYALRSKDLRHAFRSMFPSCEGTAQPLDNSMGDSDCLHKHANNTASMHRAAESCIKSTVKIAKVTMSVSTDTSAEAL
T1 sequence (P47746 whole entry): as above

Row | Structure (SMILES) | EC50 (Cannabinoid receptor 1 [1]) [µM] | Agonism [2] | further results
1 | Cc1cc(C2=CC(C(=O)NC3CCCCC3)=NS(=O)(=O)N2Cc2ccc(Cl)cc2Cl)ccc1Cl | 36.9 | – | –
2 | CC1=CC(C(=O)NC2CCCCC2)=NS(=O)(=O)N1c1ccccc1 | – | inactive | –
3 | O=C(NN1CCCCC1)C1=NS(=O)(=O)N(Cc2ccc(Cl)cc2Cl)C(c2ccc(Br)cc2)=C1 | – | inactive | –
4 | CC1=CC(C(=O)NN2CCCCC2)=NS(=O)(=O)N1c1ccc(Cl)cc1 | – | inactive | –
5 | CC12CCC(C1)C(C)(C)C2NC(=O)C1=NS(=O)(=O)N(Cc2ccc(Cl)cc2Cl)C(c2ccc(Cl)cc2)=C1 (stereo not given) | – | inactive | –
6 | Cc1cc(C2=CC(C(=O)NN3CCCCC3)=NS(=O)(=O)N2Cc2ccccc2)ccc1Cl | – | inactive | –
7 | O=C(NN1CCCCC1)C1=NS(=O)(=O)N(C2CCCCC2)C(c2ccc(Br)cc2)=C1 | 38.4 | – | –
8 | O=C(NN1CCCCC1)C1=NS(=O)(=O)N(Cc2ccccc2)C(c2ccc(Cl)cc2)=C1 | 13.5 | – | Kb (Cannabinoid receptor 1 [3]): 0.12 µM; Antagonism [4]: Antagonist
9 | CCCCCCN1C(c2ccc(Cl)cc2)=CC(C(=O)NN2CCCCC2)=NS1(=O)=O | 8.44 | – | Kb (Cannabinoid receptor 1 [3]): 0.209 µM
10 | O=C(NN1CCCCC1)C1=NS(=O)(=O)N(Cc2ccccc2)C(c2ccc(Br)cc2)=C1 | – | inactive | –
11 | Cc1c(C(=O)NN2CCCCC2)nn(-c2ccc(Cl)cc2Cl)c1-c1ccc(Cl)cc1 | – | – | Antagonism [4]: Antagonist
12 | CC1=CC(C(=O)NN2CCCCC2)=NS(=O)(=O)N1Cc1ccccc1 | – | inactive | –
13 | O=C(NN1CCCCC1)C1=NS(=O)(=O)N(Cc2ccc(Cl)cc2Cl)C(c2ccc(Cl)cc2)=C1 | – | inactive | –
14 | CC1=CC(C(=O)NN2CCCCC2)=NS(=O)(=O)N1C1CCCCC1 | – | inactive | –
15 | Cc1c(C(=O)c2cccc3ccccc23)c2cccc3c2n1[C@H](CN1CCOCC1)CO3 | – | – | Activity (Mus musculus [5]): Active; Activity (Mus musculus [6]): Active; Activity (Mus musculus [7]): Active; Activity (Mus musculus [8]): Active; Activity (Mus musculus [9]): Active
16 | Cc1cc(C2=CC(C(=O)NC3C4(C)CCC(C4)C3(C)C)=NS(=O)(=O)N2Cc2ccccc2)ccc1Cl (stereo not given) | – | inactive | –
17 | O=C(NN1CCOCC1)C1=NS(=O)(=O)N(Cc2ccccc2)C(c2ccc(Br)cc2)=C1 | – | inactive | –
18 | CC12CCC(C1)C(C)(C)C2NC(=O)C1=NS(=O)(=O)N(Cc2ccccc2)C(c2ccc(Cl)cc2)=C1 (stereo not given) | 11.9 | – | Activity (Mus musculus [10]): Active; Activity (Mus musculus [11]): inactive
19 | CCCCCCN1C(C)=CC(C(=O)NN2CCCCC2)=NS1(=O)=O | 36.9 | – | –
20 | CC1=CC(C(=O)NN2CCOCC2)=NS(=O)(=O)N1Cc1ccccc1 | – | inactive | –
21 | O=C(Nc1ccccc1)C1=NS(=O)(=O)N(Cc2ccccc2)C(c2ccc(Cl)cc2)=C1 | 5.73 | – | –
